Test results: ChEMBL document CHEMBL1135108, “Bicyclic piperazinylbenzenesulphonamides are potent and selective 5-HT6 receptor antagonists” (Bioorg Med Chem Lett, 2002)

What was measured:
[1] = molecular target: T1, 5-hydroxytryptamine receptor 1A (Homo sapiens, UniProt P08908); assay: The compound was tested for the binding affinity towards human cloned 5-hydroxytryptamine 1A receptor in HEK293 cells, using [3H]8-OH-DPAT as radioligand; format: cell-based
T1 sequence (P08908 whole entry): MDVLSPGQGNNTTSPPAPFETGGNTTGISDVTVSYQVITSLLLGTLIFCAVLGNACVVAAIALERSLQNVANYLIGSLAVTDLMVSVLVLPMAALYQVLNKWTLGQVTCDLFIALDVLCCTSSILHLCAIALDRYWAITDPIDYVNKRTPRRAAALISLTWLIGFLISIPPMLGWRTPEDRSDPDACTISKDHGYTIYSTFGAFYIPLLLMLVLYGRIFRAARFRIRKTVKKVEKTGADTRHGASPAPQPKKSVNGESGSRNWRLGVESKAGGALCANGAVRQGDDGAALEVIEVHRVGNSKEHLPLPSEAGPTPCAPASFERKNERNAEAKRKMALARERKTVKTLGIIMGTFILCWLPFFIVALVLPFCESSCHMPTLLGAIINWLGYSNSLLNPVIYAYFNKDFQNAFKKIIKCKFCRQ

[2] = molecular target: 5-hydroxytryptamine receptor 2A (Homo sapiens, UniProt P28223); assay: The compound was tested for the binding affinity towards human cloned 5-hydroxytryptamine 2A receptor in HEK293 cells, using [3H]ketanserin as radioligand; format: cell-based
Chain of 5-hydroxytryptamine receptor 2A (P28223 whole entry): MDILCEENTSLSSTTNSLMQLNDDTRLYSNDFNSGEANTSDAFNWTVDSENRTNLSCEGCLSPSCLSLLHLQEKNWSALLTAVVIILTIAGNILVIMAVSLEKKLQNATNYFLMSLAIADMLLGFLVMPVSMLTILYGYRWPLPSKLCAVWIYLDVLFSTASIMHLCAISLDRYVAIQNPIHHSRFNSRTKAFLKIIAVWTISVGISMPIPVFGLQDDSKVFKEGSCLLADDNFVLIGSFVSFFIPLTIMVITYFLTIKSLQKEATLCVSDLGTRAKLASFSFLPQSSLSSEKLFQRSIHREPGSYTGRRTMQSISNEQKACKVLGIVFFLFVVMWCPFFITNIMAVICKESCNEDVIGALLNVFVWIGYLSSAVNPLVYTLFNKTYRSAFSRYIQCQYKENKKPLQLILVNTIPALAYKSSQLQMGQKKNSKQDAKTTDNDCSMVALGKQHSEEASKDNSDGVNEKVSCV

[3] = molecular target: 5-hydroxytryptamine receptor 4 (Homo sapiens, UniProt Q13639); assay: The compound was tested for the binding affinity towards human cloned 5-hydroxytryptamine 4 receptor in HeLa cells, using [3H]LSD as radioligand; format: cell-based
Chain of 5-hydroxytryptamine receptor 4 (Q13639 whole entry): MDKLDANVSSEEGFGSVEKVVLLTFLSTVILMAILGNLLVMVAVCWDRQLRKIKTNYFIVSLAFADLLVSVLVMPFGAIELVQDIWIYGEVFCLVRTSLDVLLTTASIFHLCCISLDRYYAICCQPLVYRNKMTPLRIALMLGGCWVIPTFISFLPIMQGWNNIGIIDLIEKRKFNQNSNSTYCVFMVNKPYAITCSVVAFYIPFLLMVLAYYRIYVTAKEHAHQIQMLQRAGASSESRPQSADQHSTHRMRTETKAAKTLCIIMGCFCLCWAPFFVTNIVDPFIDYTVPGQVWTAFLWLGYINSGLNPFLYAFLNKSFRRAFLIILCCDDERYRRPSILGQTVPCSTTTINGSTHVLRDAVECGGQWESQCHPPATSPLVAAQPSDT

[4] = molecular target: 5-hydroxytryptamine receptor 1E (Homo sapiens, UniProt P28566); assay: The compound was tested for the binding affinity towards human cloned 5-hydroxytryptamine 1E receptor in CHO cells, using [3H]5-HT as radioligand; format: cell-based
Chain of 5-hydroxytryptamine receptor 1E (P28566 whole entry): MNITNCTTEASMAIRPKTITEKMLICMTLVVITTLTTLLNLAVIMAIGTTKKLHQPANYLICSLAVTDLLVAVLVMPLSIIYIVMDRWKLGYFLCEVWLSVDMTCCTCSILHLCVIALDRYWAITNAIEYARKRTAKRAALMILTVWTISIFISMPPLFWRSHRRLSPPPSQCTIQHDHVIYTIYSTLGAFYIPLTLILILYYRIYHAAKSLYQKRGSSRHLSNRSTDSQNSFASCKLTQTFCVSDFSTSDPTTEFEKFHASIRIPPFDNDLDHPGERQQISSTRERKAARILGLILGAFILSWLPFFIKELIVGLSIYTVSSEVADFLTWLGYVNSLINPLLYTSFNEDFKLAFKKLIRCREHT

[5] = molecular target: T2, 5-hydroxytryptamine receptor 2C (Homo sapiens, UniProt P28335); assay: The compound was tested for the binding affinity towards human cloned 5-hydroxytryptamine 2C receptor in HEK293 cells, using […] as radioligand; format: cell-based
T2 sequence (P28335 whole entry): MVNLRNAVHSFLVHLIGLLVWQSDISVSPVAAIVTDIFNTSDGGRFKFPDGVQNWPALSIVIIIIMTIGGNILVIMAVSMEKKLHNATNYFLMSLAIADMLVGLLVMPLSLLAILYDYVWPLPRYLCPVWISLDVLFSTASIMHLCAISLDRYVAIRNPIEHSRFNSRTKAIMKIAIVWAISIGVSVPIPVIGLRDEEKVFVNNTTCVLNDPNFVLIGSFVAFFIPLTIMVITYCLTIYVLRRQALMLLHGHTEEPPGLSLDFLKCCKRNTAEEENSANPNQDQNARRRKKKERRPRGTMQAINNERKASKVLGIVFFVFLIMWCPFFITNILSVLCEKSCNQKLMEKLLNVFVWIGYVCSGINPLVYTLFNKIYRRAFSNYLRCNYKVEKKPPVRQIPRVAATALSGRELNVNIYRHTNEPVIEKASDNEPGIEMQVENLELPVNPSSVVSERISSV

[6] = molecular target: T3, 5-hydroxytryptamine receptor 1F (Homo sapiens, UniProt P30939); assay: The compound was tested for the binding affinity towards human cloned 5-hydroxytryptamine 1F receptor in CHO cells, using [3H]5-HT as radioligand; format: cell-based
T3 sequence (P30939 whole entry): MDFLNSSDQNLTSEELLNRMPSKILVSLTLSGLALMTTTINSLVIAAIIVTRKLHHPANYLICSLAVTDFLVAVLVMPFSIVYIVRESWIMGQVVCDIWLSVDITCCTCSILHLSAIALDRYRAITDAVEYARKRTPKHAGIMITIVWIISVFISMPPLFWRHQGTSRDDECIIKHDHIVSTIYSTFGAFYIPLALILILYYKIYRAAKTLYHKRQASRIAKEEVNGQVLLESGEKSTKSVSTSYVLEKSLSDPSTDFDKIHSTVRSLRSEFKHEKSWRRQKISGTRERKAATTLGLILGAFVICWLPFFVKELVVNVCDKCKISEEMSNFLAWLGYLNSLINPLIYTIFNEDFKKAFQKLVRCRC

[7] = molecular target: D(2) dopamine receptor (Homo sapiens, UniProt P14416); assay: The compound was tested for the binding affinity towards human cloned Dopamine receptor D2 in CHO cells, using [125I]iodosulpride as radioligand; format: cell-based
Chain of D(2) dopamine receptor (P14416 whole entry): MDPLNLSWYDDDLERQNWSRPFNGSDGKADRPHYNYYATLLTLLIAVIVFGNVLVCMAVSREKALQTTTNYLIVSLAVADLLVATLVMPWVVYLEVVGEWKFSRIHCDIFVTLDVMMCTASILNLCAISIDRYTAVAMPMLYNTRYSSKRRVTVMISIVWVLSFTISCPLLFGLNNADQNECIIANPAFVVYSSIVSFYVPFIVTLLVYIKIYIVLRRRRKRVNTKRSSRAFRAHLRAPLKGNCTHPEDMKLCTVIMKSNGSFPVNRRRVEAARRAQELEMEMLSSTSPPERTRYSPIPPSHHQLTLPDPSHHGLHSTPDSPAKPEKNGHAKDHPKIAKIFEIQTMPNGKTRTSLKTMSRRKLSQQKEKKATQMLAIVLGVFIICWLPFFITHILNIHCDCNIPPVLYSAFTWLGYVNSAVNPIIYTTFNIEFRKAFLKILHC

[8] = molecular target: 5-hydroxytryptamine receptor 1B (Homo sapiens, UniProt P28222); assay: The compound was tested for the binding affinity towards human cloned 5-hydroxytryptamine 1B receptor in CHO cells, using [3H]5-HT as radioligand; format: cell-based
Chain of 5-hydroxytryptamine receptor 1B (P28222 whole entry): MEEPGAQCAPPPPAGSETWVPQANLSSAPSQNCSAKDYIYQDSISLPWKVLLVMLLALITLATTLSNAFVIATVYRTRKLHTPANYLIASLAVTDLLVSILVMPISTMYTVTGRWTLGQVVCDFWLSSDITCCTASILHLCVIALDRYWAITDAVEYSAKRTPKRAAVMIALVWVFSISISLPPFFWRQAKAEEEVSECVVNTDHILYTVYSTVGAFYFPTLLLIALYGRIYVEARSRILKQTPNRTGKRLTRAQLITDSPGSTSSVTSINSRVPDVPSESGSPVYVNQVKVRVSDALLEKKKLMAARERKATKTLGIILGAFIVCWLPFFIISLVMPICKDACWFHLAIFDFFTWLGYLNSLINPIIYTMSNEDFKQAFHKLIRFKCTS

[9] = molecular target: T4, Alpha-1B adrenergic receptor (Homo sapiens, UniProt P35368); assay: The compound was tested for the binding affinity towards Alpha-1B adrenergic receptor
T4 sequence (P35368 whole entry): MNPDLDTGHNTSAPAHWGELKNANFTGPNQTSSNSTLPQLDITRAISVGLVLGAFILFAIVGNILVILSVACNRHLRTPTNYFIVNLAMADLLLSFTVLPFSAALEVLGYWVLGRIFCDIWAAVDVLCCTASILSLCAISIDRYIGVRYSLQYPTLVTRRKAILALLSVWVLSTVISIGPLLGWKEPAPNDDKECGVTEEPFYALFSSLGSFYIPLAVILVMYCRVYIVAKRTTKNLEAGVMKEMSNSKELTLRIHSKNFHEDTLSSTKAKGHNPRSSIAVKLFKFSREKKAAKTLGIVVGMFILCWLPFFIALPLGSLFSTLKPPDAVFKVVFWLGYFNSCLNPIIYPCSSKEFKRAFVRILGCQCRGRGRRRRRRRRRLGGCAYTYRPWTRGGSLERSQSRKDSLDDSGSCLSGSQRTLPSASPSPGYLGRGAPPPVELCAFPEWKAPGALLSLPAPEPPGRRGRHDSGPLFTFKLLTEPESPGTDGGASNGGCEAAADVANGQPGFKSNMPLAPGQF

[10] = molecular target: 5-hydroxytryptamine receptor 2B (Homo sapiens, UniProt P41595); assay: The compound was tested for the binding affinity towards human cloned 5-hydroxytryptamine 2B receptor in HEK293 cells, using [3H]5-HT as radioligand; format: cell-based
Chain of 5-hydroxytryptamine receptor 2B (P41595 whole entry): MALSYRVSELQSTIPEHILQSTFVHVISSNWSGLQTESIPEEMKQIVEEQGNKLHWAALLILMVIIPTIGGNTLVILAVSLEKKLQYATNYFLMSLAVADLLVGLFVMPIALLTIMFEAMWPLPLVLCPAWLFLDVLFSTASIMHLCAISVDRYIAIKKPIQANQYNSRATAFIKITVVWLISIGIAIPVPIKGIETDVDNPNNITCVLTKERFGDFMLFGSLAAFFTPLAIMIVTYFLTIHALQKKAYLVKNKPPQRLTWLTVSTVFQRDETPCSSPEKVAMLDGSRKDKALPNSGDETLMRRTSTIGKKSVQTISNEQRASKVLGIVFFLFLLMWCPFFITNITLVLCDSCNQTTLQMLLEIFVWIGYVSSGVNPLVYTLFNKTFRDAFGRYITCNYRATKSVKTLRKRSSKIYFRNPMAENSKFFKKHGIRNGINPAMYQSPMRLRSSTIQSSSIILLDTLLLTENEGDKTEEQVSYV

[11] = molecular target: T5, 5-hydroxytryptamine receptor 6 (Homo sapiens, UniProt P50406); assay: The compound was tested for the binding affinity towards human cloned 5-hydroxytryptamine 6 receptor in HeLa cells, using […] as radioligand; n=3; format: cell-based
T5 sequence (P50406 whole entry): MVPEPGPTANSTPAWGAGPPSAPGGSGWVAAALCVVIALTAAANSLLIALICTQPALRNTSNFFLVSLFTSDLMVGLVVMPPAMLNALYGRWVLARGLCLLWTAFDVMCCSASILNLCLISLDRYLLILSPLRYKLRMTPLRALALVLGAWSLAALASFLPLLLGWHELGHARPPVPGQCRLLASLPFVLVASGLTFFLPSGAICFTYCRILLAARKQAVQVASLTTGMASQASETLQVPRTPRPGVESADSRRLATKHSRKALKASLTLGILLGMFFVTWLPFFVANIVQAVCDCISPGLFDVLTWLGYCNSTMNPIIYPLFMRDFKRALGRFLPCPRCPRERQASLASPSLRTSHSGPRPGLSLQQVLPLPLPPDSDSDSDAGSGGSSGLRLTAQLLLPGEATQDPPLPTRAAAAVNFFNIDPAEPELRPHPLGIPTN

[12] = molecular target: D(3) dopamine receptor (Homo sapiens, UniProt P35462); assay: The compound was tested for the binding affinity towards human cloned Dopamine receptor D3 in CHO cells, using [125I]iodosulpride as radioligand; format: cell-based
Chain of D(3) dopamine receptor (P35462 whole entry): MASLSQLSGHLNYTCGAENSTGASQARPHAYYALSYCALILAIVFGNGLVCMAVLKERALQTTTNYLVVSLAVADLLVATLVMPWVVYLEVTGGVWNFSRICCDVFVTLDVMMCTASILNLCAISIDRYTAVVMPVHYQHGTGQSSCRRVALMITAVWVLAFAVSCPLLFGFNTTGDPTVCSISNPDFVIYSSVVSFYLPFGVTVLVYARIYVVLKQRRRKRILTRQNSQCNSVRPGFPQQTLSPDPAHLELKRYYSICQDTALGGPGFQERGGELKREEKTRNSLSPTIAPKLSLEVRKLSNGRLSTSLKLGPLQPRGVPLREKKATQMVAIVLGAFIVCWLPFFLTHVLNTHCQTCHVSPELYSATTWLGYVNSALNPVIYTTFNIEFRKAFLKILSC

[13] = molecular target: 5-hydroxytryptamine receptor 7 (Homo sapiens, UniProt P34969); assay: The compound was tested for the binding affinity towards human cloned 5-hydroxytryptamine 7 receptor in HEK293 cells, using [3H]5-CT as radioligand; format: cell-based
Chain of 5-hydroxytryptamine receptor 7 (P34969 whole entry): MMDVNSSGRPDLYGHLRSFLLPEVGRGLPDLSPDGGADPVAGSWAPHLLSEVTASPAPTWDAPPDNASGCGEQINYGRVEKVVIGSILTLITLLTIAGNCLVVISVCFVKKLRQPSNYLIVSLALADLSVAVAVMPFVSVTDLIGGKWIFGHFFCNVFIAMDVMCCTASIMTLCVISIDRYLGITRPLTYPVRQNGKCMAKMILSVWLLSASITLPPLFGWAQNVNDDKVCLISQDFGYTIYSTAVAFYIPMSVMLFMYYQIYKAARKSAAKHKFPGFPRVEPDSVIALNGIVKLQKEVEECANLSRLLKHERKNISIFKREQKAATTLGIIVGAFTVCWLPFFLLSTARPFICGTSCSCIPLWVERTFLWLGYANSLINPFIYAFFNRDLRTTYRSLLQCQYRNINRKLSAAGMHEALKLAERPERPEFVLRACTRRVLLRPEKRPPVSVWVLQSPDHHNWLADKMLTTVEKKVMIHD

[14] = molecular target: 5-hydroxytryptamine receptor 1D (Homo sapiens, UniProt P28221); assay: The compound was tested for the binding affinity towards human cloned 5-hydroxytryptamine 1D receptor in CHO cells, using [3H]5-HT as radioligand; format: cell-based
Chain of 5-hydroxytryptamine receptor 1D (P28221 whole entry): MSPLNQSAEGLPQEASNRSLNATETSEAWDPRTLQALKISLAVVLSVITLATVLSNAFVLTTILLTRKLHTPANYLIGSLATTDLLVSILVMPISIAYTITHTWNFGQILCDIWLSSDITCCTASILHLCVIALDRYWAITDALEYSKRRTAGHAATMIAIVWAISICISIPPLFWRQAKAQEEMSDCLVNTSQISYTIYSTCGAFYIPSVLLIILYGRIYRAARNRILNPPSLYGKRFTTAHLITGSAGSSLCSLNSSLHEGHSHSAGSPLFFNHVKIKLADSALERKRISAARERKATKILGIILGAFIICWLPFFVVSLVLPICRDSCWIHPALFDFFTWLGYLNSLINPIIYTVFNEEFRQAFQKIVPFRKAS

[15] = molecular target: T5, 5-hydroxytryptamine receptor 6; assay: The compound was tested for the binding affinity towards human cloned 5-hydroxytryptamine 6 receptor in HeLa cells, using […] as radioligand; n=9; format: cell-based

Row | Ki [1] [nM] | Ki [2] [nM] | Ki [3] [nM] | Ki [4] [nM] | Ki [5] [nM] | Ki [6] [nM] | Ki [7] [nM] | Ki [8] [nM] | Ki [9] [nM] | Ki [10] [nM] | Ki [11] [nM] | Ki [12] [nM] | Ki [13] [nM] | Ki [14] [nM] | Ki [15] [nM] | Compound
1 | 200 | 1260 | 1580 | 1000 | 631 | 200 | 2000 | 631 | 1000 | 1260 | 0.794 | 631 | 631 | 126 |  | COc1ccc(NS(=O)(=O)c2sc3ccc(Cl)cc3c2C)cc1N1CCN2CCC[C@@H]2C1
2 | 631 | 631 | > 7940 | > 1000 | > 3160 | > 1000 | 398 | 3980 | 2000 | 2000 | 5.01 | 1000 | > 7940 | 316 |  | COc1ccc(NS(=O)(=O)c2sc3ccc(Cl)cc3c2C)cc1N1CCN2CCCCC2C1 (configuration not stated)
3 | 126 | 251 | 5010 | 1580 | 398 | 316 | 1580 | 631 | 1580 | 1260 |  | 316 | 1000 | 100 | 0.794 | COc1ccc(NS(=O)(=O)c2sc3ccc(Cl)cc3c2C)cc1N1CCN2CCC[C@H]2C1
